Experimental data: patent US9896435B2, “N-pyrrolidinyl,N′-pyrazolyl-urea, thiourea, guanidine and cyanoguanidine compounds as TrkA kinase inhibitors” (Array BioPharma Inc., priority 2012, dated 2018)

Key:
Format in all cases: biochemical
MELK = MELK (Homo sapiens (Human), UniProt Q14680); experiment: KinaseProfiler off-target kinase profiling; conditions: 10 μM, ATP near Km
Method: (§1) Two representative compounds (Example 2, 14) of the invention were tested for off-target kinase activity at a concentration of 10 μM by Millipore, Inc. in their KinaseProfiler™ service against all the kinases available in their full kinase panel. These compounds were run in duplicate at a concentration of ATP near the Km for each individual kinase according to Millipore's specifications. The results are shown in Table B. Data are reported as percent of control (POC) and are the average of the two replicates.

IRR = IRR (Homo sapiens (Human), UniProt P14616); experiment: KinaseProfiler off-target kinase profiling; conditions: 10 μM, ATP near Km
Method: as §1

DAPK1 = DAPK1 (Homo sapiens (Human), UniProt P53355); experiment: KinaseProfiler off-target kinase profiling; conditions: 10 μM, ATP near Km
Method: as §1

PRKG1beta = PRKG1beta (Homo sapiens (Human), UniProt Q13976); experiment: KinaseProfiler off-target kinase profiling; conditions: 10 μM, ATP near Km
Method: as §1

SGK2 = SGK2 (Homo sapiens (Human), UniProt Q9HBY8); experiment: KinaseProfiler off-target kinase profiling; conditions: 10 μM, ATP near Km
Method: as §1

CDK6/cyclinD3 = CDK6/cyclinD3 (Homo sapiens (Human), UniProt Q00534); experiment: KinaseProfiler off-target kinase profiling; conditions: 10 μM, ATP near Km
Method: as §1

CK1gamma2 = CK1gamma2 (Homo sapiens (Human), UniProt P78368); experiment: KinaseProfiler off-target kinase profiling; conditions: 10 μM, ATP near Km
Method: as §1

PRKG1alpha = PRKG1alpha (Homo sapiens (Human), UniProt Q13976); experiment: KinaseProfiler off-target kinase profiling; conditions: 10 μM, ATP near Km
Method: as §1

PDGFRalpha = PDGFRalpha (Homo sapiens (Human), UniProt P16234); experiment: KinaseProfiler off-target kinase profiling; conditions: 10 μM, ATP near Km
Method: as §1

DCAMKL2 = DCAMKL2 (Homo sapiens (Human), UniProt Q8N568); experiment: KinaseProfiler off-target kinase profiling; conditions: 10 μM, ATP near Km
Method: as §1

DRAK1 = DRAK1 (Homo sapiens (Human), UniProt Q9UEE5); experiment: KinaseProfiler off-target kinase profiling; conditions: 10 μM, ATP near Km
Method: as §1

PrKX = PrKX (Homo sapiens (Human), UniProt P51817); experiment: KinaseProfiler off-target kinase profiling; conditions: 10 μM, ATP near Km
Method: as §1

MuSK = MuSK (Homo sapiens (Human), UniProt O15146); experiment: KinaseProfiler off-target kinase profiling; conditions: 10 μM, ATP near Km
Method: as §1

FAK2 = FAK2 (Homo sapiens (Human), UniProt Q14289); experiment: KinaseProfiler off-target kinase profiling; conditions: 10 μM, ATP near Km
Method: as §1

Abl2 = Abl2 (Homo sapiens (Human), UniProt P42684); experiment: KinaseProfiler off-target kinase profiling; conditions: 10 μM, ATP near Km
Method: as §1

JAK3 = JAK3 (Homo sapiens (Human), UniProt P52333); experiment: KinaseProfiler off-target kinase profiling; conditions: 10 μM, ATP near Km
Method: as §1

PKCepsilon = PKCepsilon (Homo sapiens (Human), UniProt Q02156); experiment: KinaseProfiler off-target kinase profiling; conditions: 10 μM, ATP near Km
Method: as §1

BrSK2 = BrSK2 (Homo sapiens (Human), UniProt Q8IWQ3); experiment: KinaseProfiler off-target kinase profiling; conditions: 10 μM, ATP near Km
Method: as §1

Plk2 = Plk2 (Homo sapiens (Human), UniProt Q9NYY3); experiment: KinaseProfiler off-target kinase profiling; conditions: 10 μM, ATP near Km
Method: as §1

PKCgamma = PKCgamma (Homo sapiens (Human), UniProt P05129); experiment: KinaseProfiler off-target kinase profiling; conditions: 10 μM, ATP near Km
Method: as §1

MSK1 = MSK1 (Homo sapiens (Human), UniProt O75582); experiment: KinaseProfiler off-target kinase profiling; conditions: 10 μM, ATP near Km
Method: as §1

Rsk2 = Rsk2 (Homo sapiens (Human), UniProt P51812); experiment: KinaseProfiler off-target kinase profiling; conditions: 10 μM, ATP near Km
Method: as §1

Flt3 = Flt3 (Homo sapiens (Human), UniProt P36888); experiment: KinaseProfiler off-target kinase profiling; conditions: 10 μM, ATP near Km
Method: as §1

Lck = Lck (Homo sapiens (Human), UniProt P06239); experiment: KinaseProfiler off-target kinase profiling; conditions: 10 μM, ATP near Km
Method: as §1

MLK1 = MLK1 (Homo sapiens (Human), UniProt P80192); experiment: KinaseProfiler off-target kinase profiling; conditions: 10 μM, ATP near Km
Method: as §1

p38delta = p38delta (Homo sapiens (Human), UniProt O15264); experiment: KinaseProfiler off-target kinase profiling; conditions: 10 μM, ATP near Km
Method: as §1

WNK3 = WNK3 (Homo sapiens (Human), UniProt Q9BYP7); experiment: KinaseProfiler off-target kinase profiling; conditions: 10 μM, ATP near Km
Method: as §1

FAK = FAK (Homo sapiens (Human), UniProt Q05397); experiment: KinaseProfiler off-target kinase profiling; conditions: 10 μM, ATP near Km
Method: as §1

PKCdelta = PKCdelta (Homo sapiens (Human), UniProt Q05655); experiment: KinaseProfiler off-target kinase profiling; conditions: 10 μM, ATP near Km
Method: as §1

MKK7 = MKK7 (Homo sapiens (Human), UniProt O14733); experiment: KinaseProfiler off-target kinase profiling; conditions: 10 μM, ATP near Km
Method: as §1

PKCzeta = PKCzeta (Homo sapiens (Human), UniProt Q05513); experiment: KinaseProfiler off-target kinase profiling; conditions: 10 μM, ATP near Km
Method: as §1

FGFR4 = FGFR4 (Homo sapiens (Human), UniProt P22455); experiment: KinaseProfiler off-target kinase profiling; conditions: 10 μM, ATP near Km
Method: as §1

VRK2 = VRK2 (Homo sapiens (Human), UniProt Q86Y07); experiment: KinaseProfiler off-target kinase profiling; conditions: 10 μM, ATP near Km
Method: as §1

MAP3K5 = MAP3K5 (Homo sapiens (Human), UniProt Q99683); experiment: KinaseProfiler off-target kinase profiling; conditions: 10 μM, ATP near Km
Method: as §1

TNK2 = TNK2 (Homo sapiens (Human), UniProt Q07912); experiment: KinaseProfiler off-target kinase profiling; conditions: 10 μM, ATP near Km
Method: as §1

MST2 = MST2 (Homo sapiens (Human), UniProt Q13188); experiment: KinaseProfiler off-target kinase profiling; conditions: 10 μM, ATP near Km
Method: as §1

CDK2/cyclinA = CDK2/cyclinA (Homo sapiens (Human), UniProt P24941); experiment: KinaseProfiler off-target kinase profiling; conditions: 10 μM, ATP near Km
Method: as §1

CAMK1d = CAMK1d (Homo sapiens (Human), UniProt Q8IU85); experiment: KinaseProfiler off-target kinase profiling; conditions: 10 μM, ATP near Km
Method: as §1

[1] = test system: off-target kinases in the full kinase panel; experiment: KinaseProfiler full kinase panel, overall result; conditions: for selectivity for inhibiting TrkA versus other kinases in the panel: 10 μM, panel of about 230 kinases; for activity against off-target kinases: concentration of 10 μM
Method: as §1
Such a drug profile would represent a safer approach to treating pain, inflammation, cancer and certain skin diseases than has been previously reported.

Sequence of CK1gamma2 (P78368 whole entry): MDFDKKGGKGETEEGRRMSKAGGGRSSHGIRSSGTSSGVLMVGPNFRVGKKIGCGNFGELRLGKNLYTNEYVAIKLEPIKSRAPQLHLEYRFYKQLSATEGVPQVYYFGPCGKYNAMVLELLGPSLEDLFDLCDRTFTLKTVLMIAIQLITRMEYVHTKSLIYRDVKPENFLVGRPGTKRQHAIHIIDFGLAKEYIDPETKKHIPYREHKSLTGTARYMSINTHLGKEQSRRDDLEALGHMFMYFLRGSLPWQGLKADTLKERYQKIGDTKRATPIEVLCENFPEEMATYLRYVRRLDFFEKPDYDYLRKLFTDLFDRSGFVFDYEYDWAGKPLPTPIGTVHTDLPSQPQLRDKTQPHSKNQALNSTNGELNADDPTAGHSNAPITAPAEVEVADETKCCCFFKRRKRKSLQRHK
Sequence of WNK3 (Q9BYP7 whole entry): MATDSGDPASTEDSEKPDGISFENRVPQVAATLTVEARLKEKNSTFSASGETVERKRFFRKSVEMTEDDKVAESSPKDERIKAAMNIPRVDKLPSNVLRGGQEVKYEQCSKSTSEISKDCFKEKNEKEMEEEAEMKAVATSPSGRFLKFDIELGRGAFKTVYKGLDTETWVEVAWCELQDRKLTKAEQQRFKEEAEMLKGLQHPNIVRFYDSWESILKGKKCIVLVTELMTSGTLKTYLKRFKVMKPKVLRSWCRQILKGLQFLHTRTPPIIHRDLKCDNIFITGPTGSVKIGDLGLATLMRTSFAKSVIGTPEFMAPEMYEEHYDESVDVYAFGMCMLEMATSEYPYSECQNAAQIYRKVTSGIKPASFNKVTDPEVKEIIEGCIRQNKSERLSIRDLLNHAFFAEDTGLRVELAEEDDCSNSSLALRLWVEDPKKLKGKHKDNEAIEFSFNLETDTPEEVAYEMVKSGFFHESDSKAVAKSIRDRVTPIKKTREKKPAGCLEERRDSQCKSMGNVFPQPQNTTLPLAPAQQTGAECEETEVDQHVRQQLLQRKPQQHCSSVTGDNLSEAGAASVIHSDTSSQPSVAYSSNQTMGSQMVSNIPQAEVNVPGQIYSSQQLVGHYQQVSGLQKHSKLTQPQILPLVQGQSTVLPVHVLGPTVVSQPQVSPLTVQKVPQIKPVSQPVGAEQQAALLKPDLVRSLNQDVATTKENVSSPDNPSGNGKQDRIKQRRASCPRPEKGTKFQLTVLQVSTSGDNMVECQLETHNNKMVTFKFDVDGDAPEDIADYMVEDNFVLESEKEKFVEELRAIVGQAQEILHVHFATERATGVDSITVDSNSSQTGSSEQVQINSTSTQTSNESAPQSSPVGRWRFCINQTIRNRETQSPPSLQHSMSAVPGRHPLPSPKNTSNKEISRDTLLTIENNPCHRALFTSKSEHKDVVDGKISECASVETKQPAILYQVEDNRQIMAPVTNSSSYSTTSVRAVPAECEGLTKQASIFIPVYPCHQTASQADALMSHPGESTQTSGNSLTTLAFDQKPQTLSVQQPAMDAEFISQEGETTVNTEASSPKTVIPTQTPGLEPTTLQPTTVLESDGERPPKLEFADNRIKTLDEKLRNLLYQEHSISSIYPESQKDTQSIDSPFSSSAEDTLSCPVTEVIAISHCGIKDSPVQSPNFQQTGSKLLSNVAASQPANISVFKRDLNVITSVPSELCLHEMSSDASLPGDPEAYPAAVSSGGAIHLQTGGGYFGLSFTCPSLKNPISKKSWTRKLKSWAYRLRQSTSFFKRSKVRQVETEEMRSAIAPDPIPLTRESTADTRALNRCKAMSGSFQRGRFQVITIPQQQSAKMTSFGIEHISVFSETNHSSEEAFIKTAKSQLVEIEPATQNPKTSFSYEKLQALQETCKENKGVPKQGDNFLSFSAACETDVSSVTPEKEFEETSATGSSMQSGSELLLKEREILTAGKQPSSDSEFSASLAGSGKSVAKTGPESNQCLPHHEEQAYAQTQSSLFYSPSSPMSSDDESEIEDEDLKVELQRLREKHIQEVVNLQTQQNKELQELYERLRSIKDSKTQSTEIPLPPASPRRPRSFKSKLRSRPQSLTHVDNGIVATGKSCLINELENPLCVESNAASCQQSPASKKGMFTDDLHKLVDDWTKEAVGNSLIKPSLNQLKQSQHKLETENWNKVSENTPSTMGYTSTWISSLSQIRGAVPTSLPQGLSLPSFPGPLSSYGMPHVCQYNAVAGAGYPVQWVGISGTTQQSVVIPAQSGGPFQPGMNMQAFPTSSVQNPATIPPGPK
Sequence of DAPK1 (P53355 whole entry): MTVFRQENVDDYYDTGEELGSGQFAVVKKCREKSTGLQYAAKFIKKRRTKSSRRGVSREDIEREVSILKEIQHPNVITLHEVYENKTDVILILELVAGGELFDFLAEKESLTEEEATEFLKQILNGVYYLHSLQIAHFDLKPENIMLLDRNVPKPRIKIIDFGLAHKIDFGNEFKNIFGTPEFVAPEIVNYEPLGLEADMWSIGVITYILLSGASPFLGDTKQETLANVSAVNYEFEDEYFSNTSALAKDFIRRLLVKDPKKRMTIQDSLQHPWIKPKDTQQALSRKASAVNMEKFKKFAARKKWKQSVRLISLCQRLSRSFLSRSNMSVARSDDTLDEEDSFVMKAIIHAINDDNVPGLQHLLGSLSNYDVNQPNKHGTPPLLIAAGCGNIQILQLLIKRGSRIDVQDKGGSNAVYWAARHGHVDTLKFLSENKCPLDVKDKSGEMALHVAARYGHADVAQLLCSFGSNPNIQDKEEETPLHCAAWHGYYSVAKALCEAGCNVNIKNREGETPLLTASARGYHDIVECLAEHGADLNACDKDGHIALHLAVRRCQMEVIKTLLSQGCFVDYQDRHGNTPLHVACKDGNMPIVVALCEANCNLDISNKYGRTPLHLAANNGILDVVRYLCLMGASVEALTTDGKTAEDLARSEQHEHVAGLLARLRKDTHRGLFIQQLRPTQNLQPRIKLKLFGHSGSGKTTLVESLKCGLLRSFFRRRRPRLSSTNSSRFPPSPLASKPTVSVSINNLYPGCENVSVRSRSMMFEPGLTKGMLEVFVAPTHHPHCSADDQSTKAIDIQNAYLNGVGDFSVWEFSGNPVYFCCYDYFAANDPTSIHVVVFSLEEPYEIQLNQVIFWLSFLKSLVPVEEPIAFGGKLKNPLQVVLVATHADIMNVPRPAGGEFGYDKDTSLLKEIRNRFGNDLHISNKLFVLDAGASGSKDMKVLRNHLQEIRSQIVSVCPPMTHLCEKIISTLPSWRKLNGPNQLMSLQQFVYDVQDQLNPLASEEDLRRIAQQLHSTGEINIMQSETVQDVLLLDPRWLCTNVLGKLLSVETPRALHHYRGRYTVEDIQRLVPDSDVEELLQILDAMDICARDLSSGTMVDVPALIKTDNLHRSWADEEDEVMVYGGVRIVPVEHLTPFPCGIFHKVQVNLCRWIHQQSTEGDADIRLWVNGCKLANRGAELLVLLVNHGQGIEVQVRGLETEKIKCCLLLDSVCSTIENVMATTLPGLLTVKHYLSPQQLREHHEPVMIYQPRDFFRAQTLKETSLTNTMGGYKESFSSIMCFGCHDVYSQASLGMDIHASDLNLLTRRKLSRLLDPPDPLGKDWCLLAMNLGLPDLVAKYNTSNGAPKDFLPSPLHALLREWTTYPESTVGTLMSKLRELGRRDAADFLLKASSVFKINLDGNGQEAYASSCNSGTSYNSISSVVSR
Sequence of JAK3 (P52333 whole entry): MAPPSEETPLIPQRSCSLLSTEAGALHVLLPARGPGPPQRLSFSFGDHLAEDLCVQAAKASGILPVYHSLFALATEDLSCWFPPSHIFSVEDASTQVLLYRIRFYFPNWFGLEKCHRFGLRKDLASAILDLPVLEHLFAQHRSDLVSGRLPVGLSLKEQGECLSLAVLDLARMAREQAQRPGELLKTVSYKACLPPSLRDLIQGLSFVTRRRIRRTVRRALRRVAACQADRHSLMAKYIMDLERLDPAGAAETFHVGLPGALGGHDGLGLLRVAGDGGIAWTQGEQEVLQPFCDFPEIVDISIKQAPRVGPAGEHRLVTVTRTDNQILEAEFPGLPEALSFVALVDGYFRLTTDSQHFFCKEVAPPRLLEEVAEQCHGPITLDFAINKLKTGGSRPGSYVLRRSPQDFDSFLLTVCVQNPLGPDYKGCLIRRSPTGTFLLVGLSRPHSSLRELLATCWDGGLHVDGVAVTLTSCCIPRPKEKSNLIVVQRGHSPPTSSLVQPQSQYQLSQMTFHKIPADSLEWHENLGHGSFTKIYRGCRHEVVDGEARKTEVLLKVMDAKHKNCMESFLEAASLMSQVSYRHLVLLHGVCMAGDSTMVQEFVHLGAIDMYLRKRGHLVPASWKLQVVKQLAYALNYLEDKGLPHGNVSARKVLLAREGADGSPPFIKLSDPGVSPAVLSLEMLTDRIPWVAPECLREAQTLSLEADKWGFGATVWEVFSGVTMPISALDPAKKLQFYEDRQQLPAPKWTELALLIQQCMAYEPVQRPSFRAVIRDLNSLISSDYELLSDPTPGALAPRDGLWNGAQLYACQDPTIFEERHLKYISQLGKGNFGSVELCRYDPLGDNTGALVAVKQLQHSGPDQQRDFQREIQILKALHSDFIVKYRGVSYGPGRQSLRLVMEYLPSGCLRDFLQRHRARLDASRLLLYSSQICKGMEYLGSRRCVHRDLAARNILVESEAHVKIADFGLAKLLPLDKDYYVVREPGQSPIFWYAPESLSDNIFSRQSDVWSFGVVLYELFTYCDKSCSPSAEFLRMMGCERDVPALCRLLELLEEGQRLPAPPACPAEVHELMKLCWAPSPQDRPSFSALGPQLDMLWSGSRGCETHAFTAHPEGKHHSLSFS
Sequence of PrKX (P51817 whole entry): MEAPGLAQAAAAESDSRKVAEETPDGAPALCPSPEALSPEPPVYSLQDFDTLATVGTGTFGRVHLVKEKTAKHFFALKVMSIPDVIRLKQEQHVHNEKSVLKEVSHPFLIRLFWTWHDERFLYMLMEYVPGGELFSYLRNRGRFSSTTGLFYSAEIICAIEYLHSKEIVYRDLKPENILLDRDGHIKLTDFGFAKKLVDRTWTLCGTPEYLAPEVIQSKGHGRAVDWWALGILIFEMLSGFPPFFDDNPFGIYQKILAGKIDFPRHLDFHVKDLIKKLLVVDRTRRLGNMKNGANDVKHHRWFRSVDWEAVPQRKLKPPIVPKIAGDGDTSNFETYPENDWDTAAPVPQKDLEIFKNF

| Avg POC (MELK) | Avg POC (IRR) | Avg POC (DAPK1) | Avg POC (PRKG1beta) | Avg POC (SGK2) | Avg POC (CDK6/cyclinD3) | Avg POC (CK1gamma2) | Avg POC (PRKG1alpha) | Avg POC (PDGFRalpha) | Avg POC (DCAMKL2) | Avg POC (DRAK1) | Avg POC (PrKX) | Avg POC (MuSK) | Avg POC (FAK2) | Avg POC (Abl2) | Avg POC (JAK3) | Avg POC (PKCepsilon) | Avg POC (BrSK2) | Avg POC (Plk2) | Avg POC (PKCgamma) | Compound | further results |
| --- | --- | --- | --- | --- | --- | --- | --- | --- | --- | --- | --- | --- | --- | --- | --- | --- | --- | --- | --- | --- | --- |
| 110 POC | 105 POC | 97 POC | 97.5 POC | 99 POC | 96 POC | 73.5 POC | 108 POC | 110.5 POC | 105 POC | 86.5 POC | 110.5 POC | 103.5 POC | 99.5 POC | 101 POC | 103.5 POC | 103.5 POC | 93 POC | 99.5 POC | 100.5 POC | COCCN1C[C@@H](NC(=O)Nc2c(C)c(-c3ccnc(C)c3)nn2-c2ccccc2)[C@H](c2ccc(F)c(F)c2)C1 [Example 2, 1-((3S,4R)-4-(3,4-difluorophenyl)-1-(2-methoxyethyl)pyrrolidin-3-yl)-3-(4-methyl-3-(2-methylpyridin-4-yl)-1-phenyl-1H-pyrazol-5-yl)urea] | Avg POC (MSK1): 102.5 POC; Avg POC (Rsk2): 106 POC; Avg POC (Flt3): 119.5 POC; Avg POC (Lck): 113 POC; Avg POC (MLK1): 103.5 POC; Avg POC (p38delta): 107.5 POC; Avg POC (WNK3): 99 POC; Avg POC (FAK): 111.5 POC; Avg POC (PKCdelta): 102.5 POC; Avg POC (MKK7): 97.5 POC; Avg POC (PKCzeta): 100 POC; Avg POC (FGFR4): 105.5 POC; Avg POC (VRK2): 101.5 POC; Avg POC (MAP3K5): 97.5 POC; Avg POC (TNK2): 109.5 POC; Avg POC (MST2): 99.5 POC; Avg POC (CDK2/cyclinA): 111 POC; Avg POC (CAMK1d): 100 POC; selectivity for inhibiting TrkA versus other kinases in the panel [1]: remarkable and unexpected selectivity; activity against off-target kinases [1]: largely inactive |
| 111.5 POC | 96 POC | 99.5 POC | 101.5 POC | 100 POC | 99.5 POC | 53 POC | 100.5 POC | 114.5 POC | 114.5 POC | 101.5 POC | 94 POC | 98.5 POC | 107 POC | 95.5 POC | 101 POC | 114.5 POC | 99 POC | 102 POC | 89.5 POC | COCCN1C[C@@H](NC(=O)Nc2c(C)c(-c3cnc(C)nc3)nn2-c2ccccc2)[C@H](c2cc(F)cc(F)c2)C1 [Example 14, 1-((3S,4R)-4-(3,5-difluorophenyl)-1-(2-methoxyethyl)pyrrolidin-3-yl)-3-(4-methyl-3-(2-methylpyrimidin-5-yl)-1-phenyl-1H-pyrazol-5-yl)urea] | Avg POC (MSK1): 106 POC; Avg POC (Rsk2): 99.5 POC; Avg POC (Flt3): 90 POC; Avg POC (Lck): 112.5 POC; Avg POC (MLK1): 102 POC; Avg POC (p38delta): 102.5 POC; Avg POC (WNK3): 96 POC; Avg POC (FAK): 98.5 POC; Avg POC (PKCdelta): 99.5 POC; Avg POC (MKK7): 111 POC; Avg POC (PKCzeta): 99.5 POC; Avg POC (FGFR4): 110 POC; Avg POC (VRK2): 109.5 POC; Avg POC (MAP3K5): 104 POC; Avg POC (TNK2): 97.5 POC; Avg POC (MST2): 101 POC; Avg POC (CDK2/cyclinA): 113.5 POC; Avg POC (CAMK1d): 103.5 POC; selectivity for inhibiting TrkA versus other kinases in the panel [1]: remarkable and unexpected selectivity; activity against off-target kinases [1]: largely inactive |
